Measurements from US6589956B2, “Benzenesulphonamide compounds” (Les Laboratoires Servier, priority 2001, dated 2003).
pIC50: −log10 of the molar value.

Tests used:
[1] = system: platelets in human platelet-rich plasma (5-hydroxytryptamine-induced aggregation); test: Platelet aggregation in man induced by 5-hydroxytryptamine; type: cell-based; details: human PRP, 5-hydroxytryptamine 10 μM in the presence of 0.3 μM adenosine diphosphate and 1 μM adrenalin, read-out: IC50, inhibition of platelet aggregation produced by 5-hydroxytryptamine
Description: (§1) Venous blood is obtained from human volunteers who have not taken aspirin for at least 14 days prior to the experiment. The blood is removed over sodium citrate (0.109 M) (1 vol. of citrate over 9 vol. of blood). Platelet-rich plasma (PRP) is obtained by centrifugation (20° C.) at 200 g for 10 minutes. The number of platelets is on average. 250000 PL/mm^3. The PRP is stored at room temperature until the test and is used within 2 hours of having been taken. The TXA2 agonist U46619 is used at a concentration of 1 μM and 5-hydroxytryptamine is used at a concentration of 10 μM, the latter in the presence of 0.3 μM adenosine diphosphate and 1 μM adrenalin.

[2] = system: platelets in human platelet-rich plasma (TXA2 agonist U46619-induced aggregation); test: Platelet aggregation in man induced by the TXA2 agonist U46619; type: cell-based; details: human PRP, U46619 1 μM, read-out: IC50, inhibition of platelet aggregation induced by the TXA2 agonist
Description: as §1

- pIC50 [1]: 5.52
- pIC50 [2]: 5.82
SMILES: O=C(O)CCn1cc(CCN2CCN(c3nsc4ccccc34)CC2)c2cc(CCNS(=O)(=O)c3ccc(Cl)cc3)ccc21 [Example 6, 3-[3-{2-[4-(1,2-Benzisothiazol-3-yl)-1-piperazinyl]ethyl}-5-(2-{[(4-chlorophenyl)sulphonyl]amino}ethyl)-1H-indol-1-yl]propanoic Acid]
